Experimental data as given in ChEMBL document CHEMBL2380268, “Characterization of the receptor binding residues of kisspeptins by positional scanning using peptide photoaffinity probes” (Bioorg Med Chem Lett, 2013).
Active and inactive are the calls of the source. The rule behind the calls is not given here. Where a SMILES comes first, the peptide text is derived from it. The star is where a group is joined. X1 = [N-]=[N+]=Nc1ccc(C(=O)NCCN2C(=O)CC(*)C2=O)c(O)c1; Biotin = O=C1N[C@H]2[C@H](CS[C@H]2CCCCC(=O)*)N1

Legend:
Assay type in all cases: cell-based
[1] = target: KiSS-1 receptor (Homo sapiens) (UniProt Q969F8); assay: Binding affinity to GPR54 in HEK293 cells at 500 nM incubated for 1 hr followed by UV irradiation for 30 secs by Western blot analysis
KiSS-1 receptor (Homo sapiens), sequence (Q969F8 whole entry): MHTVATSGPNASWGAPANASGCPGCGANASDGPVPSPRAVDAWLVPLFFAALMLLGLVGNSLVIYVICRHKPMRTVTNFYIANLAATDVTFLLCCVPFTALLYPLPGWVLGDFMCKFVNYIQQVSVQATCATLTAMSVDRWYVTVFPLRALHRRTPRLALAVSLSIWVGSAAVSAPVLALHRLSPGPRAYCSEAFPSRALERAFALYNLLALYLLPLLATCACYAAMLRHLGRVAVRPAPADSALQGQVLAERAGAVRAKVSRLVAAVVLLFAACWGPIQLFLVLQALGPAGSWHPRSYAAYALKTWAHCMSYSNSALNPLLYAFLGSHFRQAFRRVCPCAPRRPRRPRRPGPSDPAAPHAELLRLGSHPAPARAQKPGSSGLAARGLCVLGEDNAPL

[2] = target: KiSS-1 receptor (Homo sapiens) (UniProt Q969F8); assay: Binding affinity to GPR54 in HEK293 cells at 500 nM incubated for 1 hr followed by UV irradiation for 30 secs by Western blot analysis in presence of PNGase F
[3] = target: KiSS-1 receptor (Homo sapiens) (UniProt Q969F8); assay: Competitive binding affinity to GPR54 in HEK293 cells at 500 nM incubated for 1 hr followed by UV irradiation for 30 secs by Western blot analysis in presence of unlabeled Kp-10

| Activity [1] | Activity [2] | Activity [3] | Structure (SMILES) |
| --- | --- | --- | --- |
| inactive | – | – | CC(C)C[C@H](NC(=O)CNC(=O)[C@H](Cc1ccccc1)NC(=O)[C@H](CO)NC(=O)[C@H](CC(N)=O)NC(=O)[C@H](Cc1c[nH]c2ccccc12)NC(=O)[C@H](CC(N)=O)NC(=O)[C@H](CSC1CC(=O)N(CCNC(=O)c2ccc(N=[N+]=[N-])cc2O)C1=O)NC(=O)[C@H](CC(N)=O)NC(=O)[C@@H]1CCCN1C(=O)[C@H](CC(C)C)NC(=O)[C@H](CC(=O)O)NC(=O)CCCC[C@@H]1SC[C@@H]2NC(=O)N[C@@H]21)C(=O)N[C@@H](CCCNC(=N)N)C(=O)N[C@@H](Cc1ccccc1)C(N)=O (some centres undefined) (Biotin-DLPNC(X1)NWNSFGLRF-NH2) |
| inactive | – | – | CC(C)C[C@H](NC(=O)CNC(=O)[C@H](Cc1ccccc1)NC(=O)[C@H](CO)NC(=O)[C@H](CC(N)=O)NC(=O)[C@H](Cc1c[nH]c2ccccc12)NC(=O)[C@H](CSC1CC(=O)N(CCNC(=O)c2ccc(N=[N+]=[N-])cc2O)C1=O)NC(=O)[C@H](Cc1ccc(O)cc1)NC(=O)[C@H](CC(N)=O)NC(=O)[C@@H]1CCCN1C(=O)[C@H](CC(C)C)NC(=O)[C@H](CC(=O)O)NC(=O)CCCC[C@@H]1SC[C@@H]2NC(=O)N[C@@H]21)C(=O)N[C@@H](CCCNC(=N)N)C(=O)N[C@@H](Cc1ccccc1)C(N)=O (some centres undefined) (Biotin-DLPNYC(X1)WNSFGLRF-NH2) |
| – | inactive | inactive | CC(C)C[C@H](NC(=O)CNC(=O)[C@H](Cc1ccccc1)NC(=O)[C@H](CO)NC(=O)[C@H](CC(N)=O)NC(=O)[C@H](CSC1CC(=O)N(CCNC(=O)c2ccc(N=[N+]=[N-])cc2O)C1=O)NC(=O)[C@H](CC(N)=O)NC(=O)[C@H](Cc1ccc(O)cc1)NC(=O)[C@H](CC(N)=O)NC(=O)[C@@H]1CCCN1C(=O)[C@H](CC(C)C)NC(=O)[C@H](CC(=O)O)NC(=O)CCCC[C@@H]1SC[C@@H]2NC(=O)N[C@@H]21)C(=O)N[C@@H](CCCNC(=N)N)C(=O)N[C@@H](Cc1ccccc1)C(N)=O (some centres undefined) (Biotin-DLPNYNC(X1)NSFGLRF-NH2) |
